≈ marks a conversion by molar mass, not a printed value.
Key:
[1] = tested on: Staphylococcus aureus; assay: In vitro antibacterial activity against Staphylococcus aureus strain ATCC 29213, expressed as MIC(minimum inhibitory concentration); format: functional
[2] = tested on: Stenotrophomonas maltophilia; assay: In vitro antibacterial activity against Xanthomonas maltophilia strain GC 562, expressed as MIC(minimum inhibitory concentration); format: functional
[3] = tested on: Citrobacter freundii; assay: In vitro antibacterial activity against Citrobacter freundii strain GC 2211, expressed as MIC(minimum inhibitory concentration); format: functional
[4] = molecular target: T1, Dipeptidase 1 (Sus scrofa) (UniProt P22412); assay: (§1) Stability towards hog kidney dehydropeptidase (DHP) expressed as relative hydrolysis to imipenem
T1 sequence (whole entry): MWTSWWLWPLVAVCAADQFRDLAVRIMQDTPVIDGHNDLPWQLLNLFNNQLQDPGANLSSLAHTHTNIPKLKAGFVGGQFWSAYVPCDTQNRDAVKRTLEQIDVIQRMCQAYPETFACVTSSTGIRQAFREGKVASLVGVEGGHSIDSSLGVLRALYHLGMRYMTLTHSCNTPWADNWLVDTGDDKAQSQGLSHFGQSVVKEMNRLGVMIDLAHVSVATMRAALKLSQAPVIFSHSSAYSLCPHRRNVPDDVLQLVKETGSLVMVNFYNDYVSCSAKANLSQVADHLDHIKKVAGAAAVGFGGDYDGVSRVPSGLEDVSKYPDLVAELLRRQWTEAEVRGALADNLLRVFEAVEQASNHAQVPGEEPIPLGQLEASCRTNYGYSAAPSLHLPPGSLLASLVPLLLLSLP

[5] = tested on: Enterobacter cloacae; assay: In vitro antibacterial activity against Enterobacter cloacae strain GC 2209, expressed as MIC(minimum inhibitory concentration); format: functional
[6] = tested on: Pseudomonas aeruginosa; assay: In vitro antibacterial activity against Pseudomonas aeruginosa strain GC 1544, expressed as MIC(minimum inhibitory concentration); format: functional
[7] = tested on: Escherichia coli; assay: In vitro antibacterial activity against Escherichia coli strain ATCC 25922, expressed as MIC(minimum inhibitory concentration); format: functional
[8] = tested on: Acinetobacter calcoaceticus; assay: In vitro antibacterial activity against Acinetobacter calcoaceticus aceticus strain GC 756, expressed as MIC(minimum inhibitory concentration); format: functional
[9] = tested on: Enterococcus faecalis; assay: In vitro antibacterial activity against Enterococcus faecalis strain GC 842, expressed as MIC(minimum inhibitory concentration); format: functional
[10] = tested on: Morganella morganii; assay: In vitro antibacterial activity against Morganella morganii strain GC 2213, expressed as MIC(minimum inhibitory concentration); format: functional
[11] = tested on: Escherichia coli; assay: In vitro antibacterial activity against Escherichia coli strain GC 2205, expressed as MIC(minimum inhibitory concentration); format: functional
[12] = tested on: Escherichia coli; assay: In vitro antibacterial activity against Escherichia coli strain GC 1792, expressed as MIC(minimum inhibitory concentration); format: functional
[13] = tested on: Staphylococcus aureus; assay: In vitro antibacterial activity against Staphylococcus aureus strain GC 2220, expressed as MIC(minimum inhibitory concentration); format: functional
[14] = tested on: Pseudomonas aeruginosa; assay: In vitro antibacterial activity against Pseudomonas aeruginosa strain ATCC 27853, expressed as MIC(minimum inhibitory concentration); format: functional
[15] = tested on: Enterococcus faecium; assay: In vitro antibacterial activity against Enterococcus faecium strain GC 1182, expressed as MIC(minimum inhibitory concentration); format: functional
[16] = molecular target: T1, Dipeptidase 1 (Sus scrofa); assay: as §1; format: functional, tissue-based

| SMILES | MIC [1] [mg/L] | MIC [2] [mg/L] | MIC [3] [mg/L] | Relative hydrolysis [4] | MIC [5] [mg/L] | MIC [6] [mg/L] | MIC [7] [mg/L] | MIC [8] [mg/L] | MIC [9] [mg/L] | MIC [10] [mg/L] | MIC [11] [mg/L] | MIC [12] [mg/L] | MIC [13] [mg/L] | MIC [14] [mg/L] | MIC [15] [mg/L] | Relative hydrolysis [16] |
| --- | --- | --- | --- | --- | --- | --- | --- | --- | --- | --- | --- | --- | --- | --- | --- | --- |
| COC(=O)[C@H]1O[C@H](COS(=O)(=O)c2ccc(C)cc2)[C@H]1SC1=C(C(=O)[O-])N2C(=O)[C@H]([C@@H](C)O)[C@H]2[C@H]1C.[Na+] | 4 | > 128 | > 128 | < 1 | > 128 | > 128 | > 128 | > 128 | 64 | > 128 | 2 | > 128 | 64 | > 128 | > 128 |  |
| CC1C(S[C@@H]2CCO[C@@H]2CN)=C(C(=O)O)N2C(=O)[C@H]([C@@H](C)O)[C@@H]12 (single isomer, unassigned) | ≤ 0.06 | > 128 | 0.12 (≈ 0.35 µM) |  | < 0.06 | 16 (≈ 46.7 µM) | ≤ 0.06 | 2 (≈ 5.84 µM) | 1 (≈ 2.92 µM) | 0.5 (≈ 1.46 µM) | ≤ 0.06 | ≤ 0.06 | 2 (≈ 5.84 µM) | 4 (≈ 11.7 µM) | 64 (≈ 187 µM) | 8.5 |
| C[C@H]1C(S[C@H]2[C@@H](CN)O[C@@H]2CO)=C(C(=O)O)N2C(=O)[C@H]([C@@H](C)O)C12 (some centres not stated) | 0.12 (≈ 0.335 µM) | > 128 | 1 (≈ 2.79 µM) |  | 0.25 (≈ 0.698 µM) | 32 (≈ 89.3 µM) | 0.12 (≈ 0.335 µM) | 4 (≈ 11.2 µM) | 4 (≈ 11.2 µM) | 2 (≈ 5.58 µM) | 0.25 (≈ 0.698 µM) | 0.25 (≈ 0.698 µM) | 8 (≈ 22.3 µM) | 16 (≈ 44.6 µM) | > 128 |  |
| C[C@@H](O)[C@H]1C(=O)N2C(C(=O)O)=C(SCCNC=N)C[C@H]12 [IMIPENEM ANHYDROUS] | ≤ 0.06 | > 128 | 0.5 (≈ 1.67 µM) | 100 | ≤ 0.06 | 16 (≈ 53.4 µM) | 0.12 (≈ 0.401 µM) | 0.5 (≈ 1.67 µM) | 1 (≈ 3.34 µM) | 2 (≈ 6.68 µM) | 0.12 (≈ 0.401 µM) | 0.12 (≈ 0.401 µM) | 1 (≈ 3.34 µM) | 2 (≈ 6.68 µM) | 128 (≈ 428 µM) |  |

The next lines start with the values.

| MIC [1] [mg/L] | MIC [2] [mg/L] | MIC [3] [mg/L] | Relative hydrolysis [4] | MIC [5] [mg/L] | MIC [6] [mg/L] | MIC [7] [mg/L] | MIC [8] [mg/L] | MIC [9] [mg/L] | MIC [10] [mg/L] | MIC [11] [mg/L] | MIC [12] [mg/L] | MIC [13] [mg/L] | MIC [14] [mg/L] | MIC [15] [mg/L] | Relative hydrolysis [16] | SMILES |
| --- | --- | --- | --- | --- | --- | --- | --- | --- | --- | --- | --- | --- | --- | --- | --- | --- |
| 0.12 | > 128 | 1 |  | 0.5 | 128 | 0.12 | 16 | 4 | 4 | 0.25 | 0.12 | 8 | 64 | > 128 |  | C[C@H]1C(S[C@@H]2[C@@H](C)O[C@@H]2CN)=C(C(=O)[O-])N2C(=O)[C@H]([C@@H](C)O)C12.[Na+] (some centres not stated) |
| 1 (≈ 2.59 µM) | > 128 | 1 (≈ 2.59 µM) | < 1 | 0.25 (≈ 0.647 µM) | > 128 | 0.25 (≈ 0.647 µM) | 16 (≈ 41.4 µM) | 32 (≈ 82.8 µM) | 16 (≈ 41.4 µM) | 0.5 (≈ 1.29 µM) | 0.5 (≈ 1.29 µM) | 32 (≈ 82.8 µM) | 128 (≈ 331 µM) | > 128 |  | COC(=O)[C@H]1O[C@H](CN)[C@H]1SC1=C(C(=O)O)N2C(=O)[C@H]([C@@H](C)O)[C@H]2[C@H]1C |
| 4 | > 64 | 8 |  | 2 | > 64 | 0.5 | 32 | 32 | 4 | 0.5 | 1 | > 64 | > 64 | > 64 |  | C[C@@H](O)[C@H]1C(=O)N2C(C(=O)[O-])=C(S[C@H]3[C@@H](C(=O)N(C)C)O[C@@H]3CO)[C@H](C)[C@H]12.[Na+] |
| 2 | > 128 | 16 | < 1 | 4 | > 128 | 0.5 | 32 | 16 | 4 | 0.25 | 1 | 32 | > 128 | > 128 |  | COC(=O)[C@H]1O[C@H](CO)[C@H]1SC1=C(C(=O)[O-])N2C(=O)[C@H]([C@@H](C)O)[C@H]2[C@H]1C.[Na+] |
